Measurements published in paper PMC3414753, “Oleamide activates peroxisome proliferator-activated receptor gamma (PPARγ) in vitro” (2012).

Experiments:
[1] = target: T1, PPARγ (Homo sapiens, UniProt P37231); test: biochemical; format: binding
T1 construct: gene PPARG
T1 sequence (P37231 232-505 limits assumed): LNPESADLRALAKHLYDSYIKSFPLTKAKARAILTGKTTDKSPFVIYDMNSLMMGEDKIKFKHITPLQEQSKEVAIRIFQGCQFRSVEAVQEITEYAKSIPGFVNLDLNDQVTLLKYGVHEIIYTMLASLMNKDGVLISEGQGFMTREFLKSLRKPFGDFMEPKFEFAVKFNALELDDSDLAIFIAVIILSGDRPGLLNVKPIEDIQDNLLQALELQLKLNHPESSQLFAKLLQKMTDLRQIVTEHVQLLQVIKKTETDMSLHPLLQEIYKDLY

[2] = target: T2, PPARβ (Homo sapiens, UniProt Q03181); test: LanthaScreen TR-FRET competitive binding assay; displacement incomplete at […]
T2 construct: gene PPARD
T2 sequence (Q03181 171-441 limits assumed): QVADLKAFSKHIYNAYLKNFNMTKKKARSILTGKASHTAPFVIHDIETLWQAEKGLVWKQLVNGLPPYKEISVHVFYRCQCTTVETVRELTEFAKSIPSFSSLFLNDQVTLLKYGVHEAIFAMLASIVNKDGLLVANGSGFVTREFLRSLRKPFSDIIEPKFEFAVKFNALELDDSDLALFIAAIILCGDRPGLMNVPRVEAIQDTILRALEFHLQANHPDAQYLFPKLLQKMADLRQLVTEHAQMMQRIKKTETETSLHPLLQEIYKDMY

[3] = target: T3, PPARα (Homo sapiens, UniProt Q07869); test: as above
T3 construct: gene PPARA
T3 sequence (Q07869 196-468 limits assumed): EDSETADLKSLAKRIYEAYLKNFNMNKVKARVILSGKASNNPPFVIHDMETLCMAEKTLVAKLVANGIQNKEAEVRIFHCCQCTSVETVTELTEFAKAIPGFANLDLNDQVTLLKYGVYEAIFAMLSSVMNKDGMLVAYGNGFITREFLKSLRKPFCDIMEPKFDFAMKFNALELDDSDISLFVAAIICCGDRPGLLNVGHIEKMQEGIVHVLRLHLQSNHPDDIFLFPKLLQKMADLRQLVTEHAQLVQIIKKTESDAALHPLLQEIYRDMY

IC50 [1]: ~38 µM
SMILES: CCCCCCCC/C=C\CCCCCCCC(N)=O [ODA, (Z)-octadec-9-enamide]
LanthaScreen TR-FRET competitive binding assay; displacement incomplete at 100 μ [2]: ODA evoked concentration-dependent displacement of fluorescent ligand from each receptor binding site, displacement at PPARα and PPARβ was incomplete
LanthaScreen TR-FRET competitive binding assay; displacement incomplete at 100 μ [3]: ODA evoked concentration-dependent displacement of fluorescent ligand from each receptor binding site, displacement at PPARα and PPARβ was incomplete
